Results: patent US11464770B2, “Anticancer pharmaceutical composition” (NATIONAL CANCER CENTER, priority 2016, dated 2022)
Read-outs that look alike come from different tables or passages of the source.

How the values were obtained:
melanoma cell lines = experiment: Cell based assay, cell viability (CellTiter-Glo), melanoma cell lines; conditions: Homo sapiens; LOX-IMVI cell line
Experimental: (§1) Commercially available bladder cancer, prostate cancer, lung cancer, breast cancer, blood cancer, pancreatic cancer, colorectal cancer, brain cancer, neuroblastoma, melanoma, liver cancer, cervical carcinoma, ovarian cancer, renal cancer, and papilloma cell lines were each treated with trypsin-EDTA and cultured, followed by being seeded in each well of a 96 well plate. After 24 hours of treatment at constant temperature, the respective cells were treated with the candidate compound so that a final concentration became 0 to 2 μM. The treated cells were additionally cultured for 72 hours, and cell viability was measured by using an ATP detection method (CellTiter-Glo® Luminescent Cell Viability Assay, Promega).

renal cancer cell lines = experiment: Cell based assay, cell viability (CellTiter-Glo), renal cancer cell lines; conditions: Homo sapiens; ACHN cells
Experimental: as §1

[1] = tested on: breast cancer cell lines (e.g. MDA-MB-231, SK-BR-3, MDA-MB-468, HCC1954); experiment: Cell based assay, cell viability (CellTiter-Glo), breast cancer cell lines; conditions: 72 hours, CellTiter-Glo
Experimental: as §1

[2] = Breast cancer cell line MDA-MB-231-L/DOX, read-out: IC50, MDA-MB-231-L/DOX
[3] = Homo sapiens, Breast cancer cell line BT-20, read-out: IC50, BT-20
[4] = Homo sapiens, Breast cancer cell line HCC1395, read-out: IC50, HCC1395
[5] = Homo sapiens, Breast cancer cell line HCC1954, read-out: IC50, HCC1954
[6] = Homo sapiens, Breast cancer cell line JIMT-1, read-out: IC50, JIMT-1
[7] = Homo sapiens, Breast cancer cell line MCF7, read-out: IC50, MCF7
[8] = Homo sapiens, Breast cancer cell line MDA-MB-231, read-out: IC50, MDA-MB-231
[9] = Homo sapiens, Breast cancer cell line MDA-MB-468, read-out: IC50, MDA-MB-468
[10] = Homo sapiens, Breast cancer cell line SK-BR-3, read-out: IC50, SK-BR-3

IC50 (melanoma cell lines) [µM]	IC50 (renal cancer cell lines) [µM]	IC50 [1, 2] [µM]	IC50 [1, 3] [µM]	IC50 [1, 4] [µM]	IC50 [1, 5] [µM]	IC50 [1, 6] [µM]	IC50 [1, 7] [µM]	IC50 [1, 8] [µM]	IC50 [1, 9] [µM]	IC50 [1, 10] [µM]	SMILES
1.5	> 2	> 2	> 2	> 10	> 2	> 10	> 2	> 2	> 2	1.09	CC(=O)c1c([S+](C)[O-])[nH]c2c(Br)ccc(Cl)c2c1=O (centres unmarked) [Compound 1, 3-acetyl-8-bromo-5-chloro-2-(methylsulfinyl)quinolin-4(1H)-one]
> 2	> 2	> 2	> 2	> 10	> 2	> 10	> 2	> 2	> 2	> 2	CSc1[nH]c2c(Br)ccc(Cl)c2c(=O)c1C(C)=O [Compound 2, 3-acetyl-8-bromo-5-chloro-2-(methylthio)quinolin-4(1H)-one]
> 2	> 2	> 2	> 2	> 10	> 2	> 10	> 2	> 2	> 2	> 2	CC(=O)c1c(SCc2ccccc2)[nH]c2c(Br)ccc(Cl)c2c1=O [Compound 3, 3-acetyl-2-(benzylthio)-8-bromo-5-chloroquinolin-4(1H)-one]
> 2	> 2	> 2	> 2	> 10	> 2	> 10	> 2	> 2	> 2	> 2	CSc1c(C(C)=O)c(=O)c2c(Cl)ccc(Br)c2n1C [Compound 5, 3-acetyl-8-bromo-5-chloro-1-methyl-2-(methylthio)quinolin-4(1H)-one]
1.35	> 2	> 2	> 2	> 10	> 2	> 10	> 2	> 2	> 2	1.12	CC(=O)c1c([S+](C)[O-])[nH]c2c(Cl)ccc(Cl)c2c1=O (centres unmarked) [Compound 6, 3-acetyl-5,8-dichloro-2-(methylsulfinyl)quinolin-4(1H)-one]
> 2	> 2	> 2	> 2	> 10	> 2	> 10	> 2	> 2	> 2	> 2	CSc1c(C(C)=O)c(=O)c2cc(F)ccc2n1C [Compound 7, 3-acetyl-6-fluoro-1-methyl-2-(methylthio)quinolin-4(1H)-one]
> 2	> 2	> 2	> 2	> 10	> 2	> 10	> 2	> 2	> 2	> 2	CSc1[nH]c2ccc(F)cc2c(=O)c1C(C)=O [Compound 8, 1-(6-fluoro-4-hydroxy-2-(methylthio)quinolin-3-yl)ethan-1-one]
1.05	> 2	> 2	> 2	> 10	> 2	> 10	> 2	> 2	> 2	0.85	CC(=O)c1c([S+](C)[O-])n(C(=O)c2ccc(Br)cc2)c2c(Br)ccc(Cl)c2c1=O (centres unmarked) [Compound 9, 3-acetyl-8-bromo-1-(4-bromobenzoyl)-5-chloro-2-(methylsulfinyl)quinolin-4(1H)-one]
> 2	> 2	> 2	> 2	> 10	> 2	> 10	> 2	> 2	> 2	> 2	CC(=O)c1c(SCc2ccc(Cl)cc2)[nH]c2c(Br)ccc(Cl)c2c1=O [Compound 10, 3-acetyl-8-bromo-5-chloro-2-((4-chlorobenzyl)thio)quinolin-4(1H)-one]
> 2	> 2	> 2	> 2	> 10	> 2	> 10	> 2	> 2	> 2	> 2	CC(=O)c1c([S+]([O-])Cc2ccc(Cl)cc2)[nH]c2c(Br)ccc(Cl)c2c1=O (centres unmarked) [Compound 11, 3-acetyl-8-bromo-5-chloro-2-((4-chlorobenzyl)sulfinyl)quinolin-4(1H)-one]
> 2	> 2	> 2	> 2	> 10	> 2	> 10	> 2	> 2	> 2	> 2	CC(=O)c1c(Sc2ccccc2)[nH]c2c(Br)ccc(Cl)c2c1=O [Compound 12, 3-acetyl-8-bromo-5-chloro-2-(phenylthio)quinolin-4(1H)-one]
> 2	> 2	> 2	> 2	> 10	> 2	> 10	> 2	> 2	> 2	> 2	CC(=O)c1c([S+]([O-])c2ccccc2)[nH]c2c(Br)ccc(Cl)c2c1=O (centres unmarked) [Compound 13, 3-acetyl-8-bromo-5-chloro-2-(phenylsulfinyl)quinolin-4(1H)-one]
> 2	> 2	> 2	> 2	> 10	> 2	> 10	> 2	> 2	> 2	> 2	COc1ccccc1Sc1[nH]c2c(Br)ccc(Cl)c2c(=O)c1C(C)=O [Compound 14, 3-acetyl-8-bromo-5-chloro-2-((2-methoxyphenyl)thio)quinolin-4(1H)-one]
> 2	> 2	> 2	> 2	> 10	> 2	> 10	> 2	> 2	> 2	1.68	COc1ccccc1[S+]([O-])c1[nH]c2c(Br)ccc(Cl)c2c(=O)c1C(C)=O (centres unmarked) [Compound 15, 3-acetyl-8-bromo-5-chloro-2-((2-methoxyphenyl)sulfinyl)quinolin-4(1H)-one]
> 2	> 2	> 2	> 2	> 10	> 2	> 10	> 2	> 2	> 2	> 2	CC(=O)c1c(Sc2ccc(Br)cc2)[nH]c2c(Br)ccc(Cl)c2c1=O [Compound 16, 3-acetyl-8-bromo-2-((4-bromophenyl)thio)-5-chloroquinolin-4(1H)-one]
> 2	> 2	> 2	> 2	> 10	> 2	> 10	> 2	> 2	> 2	> 2	CC(=O)c1c([S+]([O-])c2ccc(Br)cc2)[nH]c2c(Br)ccc(Cl)c2c1=O (centres unmarked) [Compound 17, 3-acetyl-8-bromo-2-((4-bromophenyl)sulfinyl)-5-chloroquinolin-4(1H)-one]
> 2	> 2	> 2	> 2	> 10	> 2	> 10	> 2	> 2	> 2	> 2	CSc1c(C(C)=O)c(=O)c2c(Cl)ccc(Br)c2n1C(C)=O [Compound 18, 1,1′-(8-bromo-5-chloro-2-(methylthio)-4-oxoquinoline-1,3(4H)-diyl)bis(ethan-1-one)]
> 2	> 2	> 2	> 2	> 10	> 2	> 10	> 2	> 2	> 2	> 2	CC(=O)c1c([S+](C)[O-])n(C(C)=O)c2c(Br)ccc(Cl)c2c1=O (centres unmarked) [Compound 19, 1,1′-(8-bromo-5-chloro-2-(methylsulfinyl)-4-oxoquinoline-1,3(4H)-diyl)bis(ethan-1-one)]
> 2	> 2	> 2	> 2	> 10	> 2	> 10	> 2	> 2	> 2	> 2	CC(=O)c1c([S+]([O-])Cc2ccccc2)n(C(=O)c2ccc(Br)cc2)c2c(Br)ccc(Cl)c2c1=O (centres unmarked) [Compound 20, 3-acetyl-2-(benzylsulfinyl)-8-bromo-1-(4-bromobenzoyl)-5-chloroquinolin-4(1H)-one]
> 2	> 2	> 2	> 2	> 10	> 2	> 10	> 2	> 2	> 2	> 2	CC(=O)c1c(S(C)(=O)=O)n(C(=O)c2ccc(Br)cc2)c2c(Br)ccc(Cl)c2c1=O [Compound 21, 3-acetyl-8-bromo-1-(4-bromobenzoyl)-5-chloro-2-(methylsulfonyl)quinolin-4(1H)-one]
> 2	> 2	> 2	> 2	> 10	> 2	> 10	> 2	> 2	> 2	> 2	CC(=O)c1c([S+](C)[O-])n(Cc2ccc(F)c(Cl)c2)c2c(Br)ccc(Cl)c2c1=O (centres unmarked) [Compound 22, 3-acetyl-8-bromo-5-chloro-1-(3-chloro-4-fluorobenzyl)-2-(methylsulfinyl)quinolin-4(1H)-one]
–	> 2	> 2	> 2	> 10	> 2	> 10	> 2	> 2	> 2	> 2	CC(=O)c1c(SCc2cccc(F)c2)[nH]c2c(Br)ccc(Cl)c2c1=O [Compound 49, 3-acetyl-8-bromo-5-chloro-2-((3-fluorobenzyl)thio)quinolin-4(1H)-one]

SMILES	IC50 (melanoma cell lines) [µM]	IC50 (renal cancer cell lines) [µM]	IC50 [1, 2] [µM]	IC50 [1, 3] [µM]	IC50 [1, 4] [µM]	IC50 [1, 5] [µM]	IC50 [1, 6] [µM]	IC50 [1, 7] [µM]	IC50 [1, 8] [µM]	IC50 [1, 9] [µM]	IC50 [1, 10] [µM]
CC(=O)c1c([S+]([O-])Cc2ccccc2)nc2c(Br)ccc(Cl)c2c1O (centres unmarked) [Compound 4]	1.09	> 2	–	> 2	> 10	> 2	> 10	> 2	> 2	> 2	0.91
